Laboratory results as given in EPA's ToxRefDB 2.

What was measured:
rat [1] = conditions: Carcinogenicity; other; Oral; Feed; dose end: 80 week; group: systemic; systemic / in life observation / body weight / body weight + systemic / in life observation / clinical signs / anemia + systemic / in life …
rat [2] = conditions: Developmental neurotoxicity study; fischer; Injection; Subcutaneous; dose end: 21 PND; group: cannot be grouped; systemic / in life observation / body weight / offspring (pup) weight + systemic / in life observation / clinical signs / tremors
rat [3] = conditions: Subchronic oral toxicity in rodents, other, Feed, dose end: 13 week
mouse [4] = conditions: Carcinogenicity, b6c3f1, Oral, Feed, dose end: 80 week, group: systemic
rat [5] = conditions: Developmental neurotoxicity study; fischer; Oral; Feed; dose end: 114 PND; group: cannot be grouped; systemic / in life observation / body weight / offspring (pup) weight
rat [6] = conditions: Combined chronic toxicity/carcinogenicity; fischer; Oral; Gavage/Intubation; dose end: 103 week; group: systemic; systemic / in life observation / clinical signs / lethargy + systemic / pathology microscopic / stomach / inflammation + systemic / …
rat [7] = conditions: Multigenerational reproductive toxicity study, sprague dawley, Oral, Feed, dose end: 2 generation
mouse [8] = conditions: Sub-acute repeat dose toxicity, b6c3f1, Oral, Gavage/Intubation, dose end: 16 day, group: systemic
rat [9] = conditions: Sub-acute repeat dose toxicity; fischer; Oral; Gavage/Intubation; dose end: 16 day; group: systemic; systemic / in life observation / body weight / body weight gain
mouse [10] = conditions: Subchronic oral toxicity in rodents, b6c3f1, Gavage/Intubation, dose end: 13 week, group: systemic
mouse [11] = conditions: Carcinogenicity, b6c3f1, Oral, Gavage/Intubation, dose end: 103 week, group: systemic
rat [12] = conditions: Subchronic oral toxicity in rodents, fischer, Gavage/Intubation, dose end: 13 week, group: systemic
mouse [13] = conditions: Combined chronic toxicity/carcinogenicity, other, Inhalation, Whole-Body, dose end: 24 month, group: systemic
rat [14] = conditions: Carcinogenicity; fischer; Oral; Gavage/Intubation; dose end: 2 year; group: systemic; systemic / pathology microscopic / kidney / casts + systemic / pathology microscopic / kidney / degeneration + systemic / pathology …
mouse [15] = conditions: Carcinogenicity; b6c3f1; Oral; Gavage/Intubation; dose end: 103 week; group: systemic; systemic / pathology microscopic / kidney / [other] + systemic / pathology microscopic / kidney / degeneration + systemic / pathology …
mouse [16] = conditions: Subchronic inhalation toxicity, other, Whole-Body, dose end: 13 week, group: systemic
rat [17] = conditions: Combined chronic toxicity/carcinogenicity, fischer, Inhalation, Whole-Body, dose end: 24 month, group: systemic
rat [18] = conditions: Subchronic oral toxicity in rodents, fischer, Gavage/Intubation, dose end: 13 week, group: systemic, systemic / pathology microscopic / kidney / degeneration
rat [19] = conditions: Subchronic inhalation toxicity, fischer, Whole-Body, dose end: 13 week, group: systemic
rat [20] = conditions: Subchronic oral toxicity in rodents, fischer, Gavage/Intubation, dose end: 13 week, group: systemic, systemic / in life observation / body weight / body weight gain + systemic / pathology microscopic / kidney / [other] + systemic / pathology…
mouse [21] = conditions: Subchronic oral toxicity in rodents, b6c3f1, Gavage/Intubation, dose end: 13 week, group: systemic, systemic / pathology microscopic / liver / [other] + systemic / pathology microscopic / liver / cytomegaly + systemic / pathology …
rat [22] = conditions: Prenatal developmental toxicity study, sprague dawley, Oral, Gavage/Intubation, dose end: 15 GD
mouse [23] = conditions: Subchronic oral toxicity in rodents, B6C3F1, Gavage/Intubation, dose end: 13 week, group: systemic, systemic / pathology microscopic / liver / cytomegaly
[24] = group: maternal, reproductive / reproductive performance / mating / mating
[25] = group: systemic, systemic / organ weight / kidney / absolute + systemic / organ weight / kidney / relative to body weight + systemic / organ weight / liver…
[26] = systemic / pathology microscopic / liver / hyperplasia
[27] = systemic / pathology microscopic / liver / hyperplasia + systemic / pathology microscopic / liver / hepatocellular carcinoma + systemic / in…
[28] = group: offspring, systemic / in life observation / body weight / offspring (pup) weight
[29] = group: parental, systemic / in life observation / body weight / body weight + systemic / in life observation / body weight / body weight gain + systemic / …
[30] = group: parental, systemic / organ weight / kidney / relative to body weight
[31] = systemic / in life observation / clinical signs / lethargy + systemic / in life observation / mortality / mortality
[32] = systemic / in life observation / clinical signs / fur (altered appearance) + systemic / in life observation / clinical signs / lethargy
[33] = systemic / in life observation / clinical signs / fur (altered appearance) + systemic / in life observation / clinical signs / lethargy + …
[34] = systemic / in life observation / clinical signs / lethargy + systemic / in life observation / body weight / body weight
[35] = systemic / in life observation / clinical signs / lethargy + systemic / in life observation / body weight / body weight + systemic / …
[36] = systemic / organ weight / liver / absolute + systemic / organ weight / liver / relative to body weight
[37] = systemic / pathology microscopic / liver / hepatoblastoma + systemic / pathology microscopic / liver / hepatocellular adenoma + systemic / …
[38] = systemic / in life observation / body weight / body weight + systemic / organ weight / liver / relative to body weight
[39] = systemic / organ weight / liver / absolute + systemic / organ weight / liver / relative to body weight + systemic / pathology microscopic / …
[40] = systemic / in life observation / body weight / body weight
[41] = group: developmental, developmental / developmental malformation / bone / supernumerary + systemic / in life observation / body weight / fetal weight
[42] = group: maternal, systemic / in life observation / body weight / body weight gain + systemic / in life observation / food consumption / food consumption

For `O=C1C2(Cl)C3(Cl)C4(Cl)C(Cl)(Cl)C5(Cl)C3(Cl)C1(Cl)C5(Cl)C24Cl` (centres undefined) [Kepone], the LEL (rat [1]) was 0.4 mg/kg/day, the LOAEL (rat [1]) was 0.4 mg/kg/day and the NEL (rat [1]) was < 0.4 mg/kg/day. The NOAEL (rat [1]) was < 0.4 mg/kg/day, the LEL (rat [2]) was 1 mg/kg/day and the LOAEL (rat [2]) was > 1 mg/kg/day. The NEL (rat [2]) was < 1 mg/kg/day, the NOAEL (rat [2]) was ≥ 1 mg/kg/day and the LEL (rat [3]; [24]) was 1.25 mg/kg/day. For the same compound, the LOAEL (rat [3]; [24]) was > 1.25 mg/kg/day, the NEL (rat [3]; [24]) was < 1.25 mg/kg/day and the NOAEL (rat [3]; [24]) was ≥ 1.25 mg/kg/day. The LEL (rat [3]; [25]) was 1.25 mg/kg/day, the LOAEL (rat [3]; [25]) was > 1.25 mg/kg/day and the NEL (rat [3]; [25]) was < 1.25 mg/kg/day. For the same compound, the NOAEL (rat [3]; [25]) was ≥ 1.25 mg/kg/day, the LOAEL (mouse [4]; [26]) was 3 mg/kg/day and the NOAEL (mouse [4]; [26]) was < 3 mg/kg/day. For the same compound, the LEL (mouse [4]; [27]) was 3 mg/kg/day, the NEL (mouse [4]; [27]) was < 3 mg/kg/day and the LEL (rat [5]) was 0.05 mg/kg/day. For the same compound, the LOAEL (rat [5]) was > 0.3 mg/kg/day, the NEL (rat [5]) was < 0.05 mg/kg/day and the NOAEL (rat [5]) was ≥ 0.3 mg/kg/day.

For `S=c1[nH]c2ccccc2s1` [2-Mercaptobenzothiazole], the LEL (rat [6]) was 188 mg/kg/day, the LOAEL (rat [6]) was 188 mg/kg/day and the NEL (rat [6]) was < 188 mg/kg/day. For the same compound, the NOAEL (rat [6]) was < 188 mg/kg/day, the LEL (rat [7]; [28]) was 194 mg/kg/day and the LOAEL (rat [7]; [28]) was 194 mg/kg/day. The NEL (rat [7]; [28]) was < 194 mg/kg/day, the NOAEL (rat [7]; [28]) was < 194 mg/kg/day and the LOAEL (rat [7]; [29]) was 695 mg/kg/day. The NOAEL (rat [7]; [29]) was 194 mg/kg/day, the LEL (rat [7]; [30]) was 218 mg/kg/day and the NEL (rat [7]; [30]) was < 218 mg/kg/day. The LOAEL (mouse [8]; systemic / in life observation / clinical signs / lethargy) was 1500 mg/kg/day, the LEL (mouse [8]; [31]) was 1500 mg/kg/day and the NEL (mouse [8]; [31]) was 750 mg/kg/day. The NOAEL (mouse [8]; [31]) was 750 mg/kg/day, the LEL (rat [9]) was 2500 mg/kg/day and the LOAEL (rat [9]) was > 2500 mg/kg/day. For the same compound, the NEL (rat [9]) was 1250 mg/kg/day, the NOAEL (rat [9]) was ≥ 2500 mg/kg/day and the LEL (mouse [10]; [32]) was 375 mg/kg/day. The LOAEL (mouse [10]; [32]) was 375 mg/kg/day, the NEL (mouse [10]; [33]) was 188 mg/kg/day and the NOAEL (mouse [10]; [33]) was 188 mg/kg/day. For the same compound, the LOAEL (mouse [11]; [34]) was 375 mg/kg/day, the NOAEL (mouse [11]; [34]) was < 375 mg/kg/day and the LEL (mouse [11]; [35]) was 375 mg/kg/day. The NEL (mouse [11]; [35]) was < 375 mg/kg/day, the LOAEL (rat [12]; systemic / in life observation / body weight / body weight gain + systemic / in life observation / clinical signs / irritability) was 750 mg/kg/day and the LEL (rat [12]; [36]) was 188 mg/kg/day. The NEL (rat [12]; [36]) was < 188 mg/kg/day and the NOAEL (rat [12]; systemic / organ weight / liver / absolute + systemic / organ weight / liver / relative to body weight + systemic / in life observation / …) was 375 mg/kg/day.

In the case of `Clc1ccc(Cl)cc1` [1,4-Dichlorobenzene], the LOAEL (mouse [13]; [37]) is reported as > 300 ppm, the NOAEL (mouse [13]; [37]) is reported as ≥ 300 ppm and the NEL (mouse [13]; systemic / pathology microscopic / liver / hepatoblastoma + systemic / pathology microscopic / liver / hepatocellular carcinoma + systemic…) is reported as 20 ppm. For the same compound, the LEL (mouse [13]; systemic / pathology microscopic / nose / metaplasia) was 75 ppm, the LEL (rat [14]) was 150 mg/kg/day and the LOAEL (rat [14]) was 150 mg/kg/day. For the same compound, the NEL (rat [14]) was < 150 mg/kg/day, the NOAEL (rat [14]) was < 150 mg/kg/day and the LEL (mouse [15]) was 300 mg/kg/day. For the same compound, the LOAEL (mouse [15]) was 300 mg/kg/day, the NEL (mouse [15]) was < 300 mg/kg/day and the NOAEL (mouse [15]) was < 300 mg/kg/day. For the same compound, the LEL (mouse [16]; [38]) was 25 ppm, the NEL (mouse [16]; [38]) was < 25 ppm and the NOAEL (mouse [16]; systemic / organ weight / liver / absolute + systemic / organ weight / liver / relative to body weight + systemic / clinical chemistry / …) was 120 ppm. For the same compound, the LOAEL (mouse [16]; systemic / organ weight / liver / relative to body weight + systemic / organ weight / liver / absolute + systemic / pathology microscopic / …) was 270 ppm, the LOAEL (rat [17]; [39]) was > 300 ppm and the NEL (rat [17]; [39]) was 20 ppm. For the same compound, the NOAEL (rat [17]; [39]) was ≥ 300 ppm, the LEL (rat [17]; systemic / pathology microscopic / nose / [other]) was 75 ppm and the LEL (rat [18]) was 300 mg/kg/day. For the same compound, the LOAEL (rat [18]) was 300 mg/kg/day, the NEL (rat [18]) was 150 mg/kg/day and the NOAEL (rat [18]) was 150 mg/kg/day. The LEL (rat [19]; [40]) was 25 ppm, the NEL (rat [19]; [40]) was < 25 ppm and the NOAEL (rat [19]; systemic / in life observation / body weight / body weight + systemic / organ weight / kidney / absolute + systemic / organ weight / kidney…) was 120 ppm. It also gave an LOAEL (rat [19]; systemic / organ weight / kidney / absolute + systemic / organ weight / kidney / relative to body weight + systemic / pathology microscopic…) of 270 ppm, an LEL (rat [20]) of 300 mg/kg/day and an LOAEL (rat [20]) of 300 mg/kg/day. For the same compound, the NEL (rat [20]) was < 300 mg/kg/day, the NOAEL (rat [20]) was < 300 mg/kg/day and the LEL (mouse [21]) was 600 mg/kg/day. For the same compound, the LOAEL (mouse [21]) was 600 mg/kg/day, the NEL (mouse [21]) was < 600 mg/kg/day and the NOAEL (mouse [21]) was < 600 mg/kg/day. For the same compound, the LEL (rat [22]; group: developmental, developmental / developmental malformation / bone / supernumerary) was 500 mg/kg/day, the LOAEL (rat [22]; [41]) was > 1000 mg/kg/day and the NEL (rat [22]; [41]) was 250 mg/kg/day. The NOAEL (rat [22]; [41]) was ≥ 1000 mg/kg/day, the LEL (rat [22]; [42]) was 500 mg/kg/day and the LOAEL (rat [22]; [42]) was > 1000 mg/kg/day. For the same compound, the NEL (rat [22]; [42]) was 250 mg/kg/day, the NOAEL (rat [22]; [42]) was ≥ 1000 mg/kg/day and the LEL (mouse [23]) was 675 mg/kg/day. It also gave an LOAEL (mouse [23]) of 675 mg/kg/day, an NEL (mouse [23]) of 338 mg/kg/day and an NOAEL (mouse [23]) of 338 mg/kg/day.
